Several values for one entry are separate records, joined by “and”; a condition that tells them apart may be missing. Equal entries are not always repeated. Where two headings read alike, the source gives them in different places. Marks after values point to notes of the source that are not given here.
Key:
[1] = design: method as in doi:10.1021/jo01097a026; conditions: for the relevant substitution pattern; cited from earlier work
[2] = design: method as in PMID 34709282; conditions: Cl− transport; Reported by Gale and co-workers; cited from earlier work
[3] = test system: panel of Gram-positive and -negative pathogens; experiment: Zone of inhibition assay; type: cell-based; conditions: 5 μL of 1 mM stock on nutrient agar, 37 °C, 24 h; radius ≤ 2 mm deemed not active
Experimental: To do this, a zone of inhibition assay was used as a qualitative measure of activity. To do so, 5 μL of a 1 mM stock of the respective compound was pipetted atop nutrient agar which was previously spread with a panel of Gram-positive and -negative pathogens of interest. Following incubation at 37 °C for 24 h, zones of inhibition were measured and recorded for each compound. Zones with a radius ≤ 2 mm were deemed as not active, and thus eliminated from further study.

[4] = Lucigenin Cl−/NO3− exchange assay in LUVs; conditions: Cl− transport, 0.4 mM POPC/cholesterol 7:3 LUVs, Hill fit at 270 s
Experimental: Given our objective was to use such transport behaviour as a method to disrupt anion homeostasis in bacteria, we also conducted anion transport assays in Large Unilamellar Liposomes (LUVs) using the well-established Lucigenin-based Cl^−/NO3^− exchange assay.[40] Briefly, LUVs containing the chloride sensitive dye lucigenin in a NaNO3 solution were prepared and a NaCl pulse was added to create a chloride concentration gradient. Upon addition of the putative transporter, the quenching of the fluorescence of lucigenin was monitored over time to assess Cl^− influx.
Lucigenin Cl-/NO3- anion exchange assay
LUV preparation and Lucigenin assays were carried out following procedures outlined by Valkenier and co-workers.8 Large unilamellar liposomes (LUVs) were synthesized using 1-palmitoyl-2-oleoyl-sn-glycero-3-phosphocholine (POPC)(11.2 µmol, soln. in CHCl3) and Cholesterol (4.8 µmol) mixed in a ratio of 7:3. This mixture was brought to dryness under gentle vacuum and subsequently, the mixture was rehydrated in an aqueous Lucigenin solution (1 mL, 0.8mM lucigenin in 225 mM NaNO3) and stirred for 1 h to obtain heterogeneous vesicles. After that, the vesicles underwent 9 freeze-thaw cycles and were extruded through a […] polycarbonate membrane 29 times to obtain monodisperse LUVs. A Sephadex G-100 size-exclusion column was employed to remove any unencapsulated lucigenin. The collected liposomes were diluted to 40 mL with 225 mM NaNO3 to obtain a homogeneous 0.4 mM liposome solution. Lucigenin fluorescence quenching was monitored in a time dependent manner using an Agilent Spectrofluorimeter to access Cl- influx (λ ex = 430 nm, λem = 505 nm).
Cl- transport behaviour was initiated at t=0 s by adding each compound as a solvate in DMSO followed by a 25 mM NaCl pulse (75µL, 1 M NaCl in […] NaNO3) to a 3 mL liposome solution. The data was collected for at least 600 s and then Triton X-100 (5% w/w in water) was added to lyse the liposomes, and normalize to 100% efflux. The recorded data was normalised and the fraction fluorescence intensity at 270 s of each tested concentration of transporters (mol%) was plotted against transporter concentration (mol%). The data obtained was fitted to the Hill equation to obtain the EC50 value at 270 s (the concentration to obtain the half maximum effect) by using Originlab 2024b or Graphpad Prism 10:
y = START + (END ‒ START) ∗ xn/(kn + xn)
Where n is the Hill coefficient, k presents the EC 50 value.

Structure (SMILES)	Hammett parameter (σ) [1]	EC50 (mol%) [2]	zone of inhibition, qualitative measure of activity [3]	EC50 (mol%) [4]
O=c1c(Nc2ccc([N+](=O)[O-])cc2)c(NC23CC4CC(CC(C4)C2)C3)c1=O [Compound 4]	0.78	0.031 ^a mol%	promising bioactivity	
O=c1c(Nc2cc(C(F)(F)F)cc(C(F)(F)F)c2)c(NC23CC4CC(CC(C4)C2)C3)c1=O [Compound 1]	0.86		promising bioactivity	0.0836 mol% and 0.084 mol%
O=c1c(Nc2ccc(Cl)c(Cl)c2)c(NC23CC4CC(CC(C4)C2)C3)c1=O [Compound 2]	0.6		promising bioactivity	0.0993 mol%

From paper PMC11788822, “Uncovering the potent antimicrobial activity of squaramide based anionophores – chloride transport and membrane disruption” (Chemical Science, 2025)
